According to ChEMBL document CHEMBL4699440, “Comprehensive review on the anti-bacterial activity of 1,2,3-triazole hybrids” (Eur J Med Chem, 2019):
Converted amounts (≈) assume the structure as drawn. Blank lines part the entries; values can stand above or below the compound they belong to.

Experiments:
Type in all cases: functional
Bacillus cereus [1] = assay: Antibacterial activity against Bacillus cereus MTCC 430 incubated for 24 hrs by macrodilution tube method
Staphylococcus aureus [2] = assay: Antibacterial activity against Staphylococcus aureus MTCC 96 incubated for 24 hrs by macrodilution tube method
Bacillus cereus [3] = assay: Antibacterial activity against Bacillus cereus by agar dilution method
Staphylococcus aureus [4] = assay: Antibacterial activity against Staphylococcus aureus by agar dilution method
Escherichia coli [5] = assay: Antibacterial activity against Escherichia coli by agar dilution method
Pseudomonas aeruginosa [6] = assay: Antibacterial activity against Pseudomonas aeruginosa by agar dilution method
Enterococcus faecium = assay: Antibacterial activity against vancomycin-resistant Enterococcus faecium by CLSI-based broth dilution method; settings: time 24 hrs
Staphylococcus aureus [7] = assay: Antibacterial activity against methicillin-sensitive Staphylococcus aureus by CLSI-based broth dilution method
Klebsiella pneumoniae = assay: Antibacterial activity against Klebsiella pneumoniae ATCC 27736 by CLSI-based broth dilution method
Pseudomonas aeruginosa [8] = assay: Antibacterial activity against Pseudomonas aeruginosa ATCC 27853 by CLSI-based broth dilution method
Staphylococcus aureus [9] = assay: Antibacterial activity against methicillin-resistant Staphylococcus aureus ATCC 25923 by CLSI-based broth dilution method
Escherichia coli [10] = assay: Antibacterial activity against ESBL-producing Escherichia coli ATCC 25925 by CLSI-based broth dilution method
Bacillus cereus [11] = assay: Antibacterial activity against Bacillus cereus ATCC 6630 incubated for 24 hrs
[12] = test system: Sphingomonas paucimobilis; assay: Antibacterial activity against Flavobacterium devorans ATCC 10829 incubated for 24 hrs
Micrococcus luteus = assay: Antibacterial activity against Micrococcus Luteus ATCC 398 incubated for 24 hrs
Escherichia coli [13] = assay: Antibacterial activity against Escherichia coli NCIM 2256 incubated for 24 hrs
Staphylococcus aureus [14] = assay: Antibacterial activity against Staphylococcus aureus ATCC 29737 incubated for 24 hrs
Pseudomonas fluorescens = assay: Antibacterial activity against Pseudomonas fluorescens NCIM 2173 incubated for 24 hrs
Penicillium chrysogenum = assay: Antifungal activity against Penicillium chrysogenum NCIM 723 incubated for 48 hrs
Curvularia lunata = assay: Antifungal activity against Curvularia lunata NCIM 1131 incubated for 48 hrs
Aspergillus niger = assay: Antifungal activity against Aspergillus niger NCIM 1196 incubated for 48 hrs

- MIC (Bacillus cereus [1]): 16 µg/mL (≈ 24.9 µM)
- MIC (Staphylococcus aureus [2]): 16 µg/mL (≈ 24.9 µM)
Compound: COc1ccc(C2C3=C(CC(C)(C)CC3=O)Oc3cc4ccc(OCc5cn(-c6ccnc7cc(Cl)ccc67)nn5)cc4cc32)cc1 (stereo unspecified)

- MIC (Bacillus cereus [1]): 16 µg/mL (≈ 23.8 µM)
- MIC (Staphylococcus aureus [2]): 16 µg/mL (≈ 23.8 µM)
Compound: COc1ccc(C2C3=C(CC(C)(C)CC3=O)Oc3cc4ccc(OCc5cn(-c6ccnc7cc(Cl)ccc67)nn5)cc4cc32)cc1OC (stereo unspecified)

- MIC (Bacillus cereus [1]): 16 µg/mL (≈ 24.1 µM)
- MIC (Staphylococcus aureus [2]): 16 µg/mL (≈ 24.1 µM)
Compound: CC1(C)CC(=O)C2=C(C1)Oc1cc3ccc(OCc4cn(-c5ccnc6cc(Cl)ccc56)nn4)cc3cc1C2c1cccc2ccccc12 (stereo unspecified)

- MIC (Bacillus cereus [1]): 16 µg/mL (≈ 25.4 µM)
- MIC (Staphylococcus aureus [2]): 16 µg/mL (≈ 25.4 µM)
Compound: CC1(C)CC(=O)C2=C(C1)Oc1cc3ccc(OCc4cn(-c5ccnc6cc(Cl)ccc56)nn4)cc3cc1C2c1ccc(F)cc1 (stereo unspecified)

- MIC (Bacillus cereus [1]): 16 µg/mL (≈ 24.7 µM)
- MIC (Staphylococcus aureus [2]): 16 µg/mL (≈ 24.7 µM)
Compound: CC1(C)CC(=O)C2=C(C1)Oc1cc3ccc(OCc4cn(-c5ccnc6cc(Cl)ccc56)nn4)cc3cc1C2c1ccc(Cl)cc1 (stereo unspecified)

- MIC (Bacillus cereus [1]): 16 µg/mL (≈ 23.1 µM)
- MIC (Staphylococcus aureus [2]): 16 µg/mL (≈ 23.1 µM)
Compound: CC1(C)CC(=O)C2=C(C1)Oc1cc3ccc(OCc4cn(-c5ccnc6cc(Cl)ccc56)nn4)cc3cc1C2c1ccc(Br)cc1 (stereo unspecified)

- MIC (Bacillus cereus [1]): 16 µg/mL (≈ 26.7 µM)
- MIC (Staphylococcus aureus [2]): 16 µg/mL (≈ 26.7 µM)
Compound: Cc1ccc(C2C3=C(CCCC3=O)Oc3cc4ccc(OCc5cn(-c6ccnc7cc(Cl)ccc67)nn5)cc4cc32)cc1 (stereo unspecified)

- MIC (Bacillus cereus [1]): 16 µg/mL (≈ 24.3 µM)
- MIC (Staphylococcus aureus [2]): 16 µg/mL (≈ 24.3 µM)
Compound: CC1(C)CC(=O)C2=C(C1)Oc1cc3ccc(OCc4cn(-c5ccnc6cc(Cl)ccc56)nn4)cc3cc1C2c1ccc([N+](=O)[O-])cc1 (stereo unspecified)

Second part, the compound before the results:

Compound: O=C(N/N=C/c1cn(-c2ccccc2)nc1-c1ccc(O)cc1O)c1cccc(-n2cc(-c3ccccc3)nn2)c1
- MIC (Bacillus cereus [3]): 2 µg/mL (≈ 3.69 µM)
- MIC (Staphylococcus aureus [4]): 2 µg/mL (≈ 3.69 µM)
- MIC (Escherichia coli [5]): 2 µg/mL (≈ 3.69 µM)
- MIC (Pseudomonas aeruginosa [6]): 2 µg/mL (≈ 3.69 µM)

Compound: c1ccc(Cn2cc(COc3ccc(-c4nc5cc(C6=NCCN6)ccc5[nH]4)cc3)nn2)cc1
- MIC (Enterococcus faecium): 8 µg/mL (≈ 17.8 µM)
- MIC (Staphylococcus aureus [7]): 8 µg/mL (≈ 17.8 µM)
- MIC (Klebsiella pneumoniae): 8 µg/mL (≈ 17.8 µM)
- MIC (Pseudomonas aeruginosa [8]): 8 µg/mL (≈ 17.8 µM)
- MIC (Staphylococcus aureus [9]): 8 µg/mL (≈ 17.8 µM)
- MIC (Escherichia coli [10]): 8 µg/mL (≈ 17.8 µM)

Compound: N=C(N)c1ccc2[nH]c(-c3ccc(OCc4cn(Cc5ccccc5)nn4)cc3)nc2c1
- MIC (Enterococcus faecium): 16 µg/mL (≈ 37.8 µM)
- MIC (Staphylococcus aureus [7]): 16 µg/mL (≈ 37.8 µM)
- MIC (Klebsiella pneumoniae): 16 µg/mL (≈ 37.8 µM)
- MIC (Pseudomonas aeruginosa [8]): 16 µg/mL (≈ 37.8 µM)
- MIC (Staphylococcus aureus [9]): 16 µg/mL (≈ 37.8 µM)
- MIC (Escherichia coli [10]): 16 µg/mL (≈ 37.8 µM)

Compound: O=C(N/N=C/c1cn(-c2ccccc2)nc1-c1cccc(O)c1)c1cccc(-n2cc(-c3ccccc3)nn2)c1
- MIC (Bacillus cereus [3]): 2 µg/mL (≈ 3.81 µM)
- MIC (Staphylococcus aureus [4]): 2 µg/mL (≈ 3.81 µM)
- MIC (Escherichia coli [5]): 2 µg/mL (≈ 3.81 µM)
- MIC (Pseudomonas aeruginosa [6]): 2 µg/mL (≈ 3.81 µM)

Compound: NC[C@H]1O[C@H](O[C@H]2[C@H](O)[C@@H](O[C@H]3O[C@H](CO)[C@@H](O)[C@H](N)[C@H]3O)[C@H](N)C[C@@H]2N)[C@H](O)[C@@H](O)[C@@H]1O [KANAMYCIN]
- MIC (Bacillus cereus [11]): 2 µg/mL (≈ 4.13 µM)
- MIC [12]: 2 µg/mL (≈ 4.13 µM)
- MIC (Micrococcus luteus): 2 µg/mL (≈ 4.13 µM)
- MIC (Escherichia coli [13]): 2 µg/mL (≈ 4.13 µM)
- MIC (Staphylococcus aureus [14]): 2 µg/mL (≈ 4.13 µM)
- MIC (Pseudomonas fluorescens): 2 µg/mL (≈ 4.13 µM)

Compound: Clc1ccc(COC(Cn2ccnc2)c2ccc(Cl)cc2Cl)c(Cl)c1 (stereo unspecified) [MICONAZOLE]
- MIC (Penicillium chrysogenum): 16 µg/mL (≈ 38.4 µM)
- MIC (Curvularia lunata): 16 µg/mL (≈ 38.4 µM)
- MIC (Aspergillus niger): 16 µg/mL (≈ 38.4 µM)

Compound: O=C(N/N=C/c1cn(-c2ccccc2)nc1-c1ccc(F)cc1)c1cccc(-n2cc(-c3ccccc3)nn2)c1
- MIC (Bacillus cereus [3]): 2 µg/mL (≈ 3.79 µM)
- MIC (Staphylococcus aureus [4]): 2 µg/mL (≈ 3.79 µM)
- MIC (Escherichia coli [5]): 2 µg/mL (≈ 3.79 µM)
- MIC (Pseudomonas aeruginosa [6]): 2 µg/mL (≈ 3.79 µM)

Compound: CC(C)NC(=N)c1ccc2[nH]c(-c3ccc(OCc4cn(-c5ccc(Cl)cc5)nn4)cc3)nc2c1
- MIC (Enterococcus faecium): 8 µg/mL (≈ 16.5 µM)
- MIC (Staphylococcus aureus [7]): 8 µg/mL (≈ 16.5 µM)
- MIC (Klebsiella pneumoniae): 8 µg/mL (≈ 16.5 µM)
- MIC (Pseudomonas aeruginosa [8]): 8 µg/mL (≈ 16.5 µM)
- MIC (Staphylococcus aureus [9]): 8 µg/mL (≈ 16.5 µM)
- MIC (Escherichia coli [10]): 8 µg/mL (≈ 16.5 µM)

Compound: O=C(N/N=C/c1cn(-c2ccccc2)nc1-c1ccc([N+](=O)[O-])cc1)c1cccc(-n2cc(-c3ccccc3)nn2)c1
- MIC (Bacillus cereus [3]): 2 µg/mL (≈ 3.61 µM)
- MIC (Staphylococcus aureus [4]): 2 µg/mL (≈ 3.61 µM)
- MIC (Escherichia coli [5]): 2 µg/mL (≈ 3.61 µM)
- MIC (Pseudomonas aeruginosa [6]): 2 µg/mL (≈ 3.61 µM)

Compound: O=C(N/N=C/c1cn(-c2ccccc2)nc1-c1ccc(Br)cc1)c1cccc(-n2cc(-c3ccccc3)nn2)c1
- MIC (Bacillus cereus [3]): 2 µg/mL (≈ 3.4 µM)
- MIC (Staphylococcus aureus [4]): 2 µg/mL (≈ 3.4 µM)
- MIC (Escherichia coli [5]): 2 µg/mL (≈ 3.4 µM)
- MIC (Pseudomonas aeruginosa [6]): 2 µg/mL (≈ 3.4 µM)

Compound: N=C(N)c1ccc2[nH]c(-c3ccc(OCc4cn(-c5ccccc5)nn4)cc3)nc2c1
- MIC (Enterococcus faecium): 16 µg/mL (≈ 39.1 µM)
- MIC (Staphylococcus aureus [7]): 16 µg/mL (≈ 39.1 µM)
- MIC (Klebsiella pneumoniae): 16 µg/mL (≈ 39.1 µM)
- MIC (Pseudomonas aeruginosa [8]): 16 µg/mL (≈ 39.1 µM)
- MIC (Staphylococcus aureus [9]): 16 µg/mL (≈ 39.1 µM)
- MIC (Escherichia coli [10]): 16 µg/mL (≈ 39.1 µM)

Compound: O=C(N/N=C/c1cn(-c2ccccc2)nc1-c1cccc2ccccc12)c1cccc(-n2cc(-c3ccccc3)nn2)c1
- MIC (Bacillus cereus [3]): 2 µg/mL (≈ 3.57 µM)
- MIC (Staphylococcus aureus [4]): 2 µg/mL (≈ 3.57 µM)
- MIC (Escherichia coli [5]): 2 µg/mL (≈ 3.57 µM)
- MIC (Pseudomonas aeruginosa [6]): 2 µg/mL (≈ 3.57 µM)

Compound: CC(C)NC(=N)c1ccc2[nH]c(-c3ccc(OCc4cn(-c5ccccc5)nn4)cc3)nc2c1
- MIC (Enterococcus faecium): 8 µg/mL (≈ 17.7 µM)
- MIC (Staphylococcus aureus [7]): 8 µg/mL (≈ 17.7 µM)
- MIC (Klebsiella pneumoniae): 8 µg/mL (≈ 17.7 µM)
- MIC (Pseudomonas aeruginosa [8]): 8 µg/mL (≈ 17.7 µM)
- MIC (Staphylococcus aureus [9]): 8 µg/mL (≈ 17.7 µM)
- MIC (Escherichia coli [10]): 8 µg/mL (≈ 17.7 µM)

Compound: O=C1CCCC2=C1C(c1ccc(Br)cc1)c1cc3cc(OCc4cn(-c5ccnc6cc(Cl)ccc56)nn4)ccc3cc1O2 (stereo unspecified)
- MIC (Bacillus cereus [1]): 16 µg/mL (≈ 24.1 µM)
- MIC (Staphylococcus aureus [2]): 16 µg/mL (≈ 24.1 µM)
